“And” between values parts separate entries of the source, which are not always exact repeats. Equal values may be shown once. Read-outs that look alike come from different tables or passages of the source.
Columns and labels:
Format in all cases: in vivo
Lamium purpureum = test: Post-emergence herbicidal action against Lamium purpureum; conditions: (Z61) post-emergence; g of a.i./ha: 1, 270, 90, 1 + 270, 1 + 90
In short: (§1)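 Greenhouse pot test, sandy loam; weeds from seed or rhizome. Post-emergence spray at three-leaf stage (3 wk after sowing), 300–800 l/ha water, various dosages. Visual % efficacy vs untreated at 3–4 wk; Colby expected value used to flag synergism.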

Sorghum halepense = test: Post-emergence herbicidal action against Sorghum halepense; conditions: 1.7 g of a.i./ha
In short: as §1

Setaria viridis = test: Post-emergence herbicidal action against Setaria viridis; conditions: 1.7 g of a.i./ha
Description: (§2) When the observed efficacies exceed the formal sum total of the values of the tests with individual applications, they also exceed the expected value according to Colby, which is calculated using the formula below and is likewise regarded as an indication of synergism (cf. S. R. Colby; in Weeds 15 (1967) p. 20 to 22): E^C=A+B−([…])
(§3) Here: • A=efficacy of the active compound (A) in % at an application rate of a g a.i./ha; • B=efficacy of the active compound (B) in % at an application rate of b g a.i./ha; • E^C=expected value of the effect of the combination (A)+(B) in % at the combined application rate a+b g a.i./ha.
(§4) Seeds or rhizome pieces of mono- and dicotyledonous weeds are placed in sandy loam in pots, covered with soil and grown in a greenhouse under good growth conditions (temperature, air humidity, water supply). Three weeks after sowing, the test plants were treated at the three-leaf stage with the compositions according to the invention. The compositions according to the invention formulated as spray powders or as emulsion concentrates were sprayed onto the green plant parts in various dosages with an application rate of 300 to 800 l/ha of water (equivalent). After the test plants have been left to stand in the greenhouse under optimal growth conditions for about 3 to 4 weeks, the action of the preparations is scored visually in comparison to untreated controls. The compositions according to the invention also have good post-emergence herbicidal activity against a broad spectrum of economically important gramineous and broadleaf weeds.

Alopecurus myosuroides = test: Post-emergence herbicidal action against Alopecurus myosuroides
In short: (§5)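 Rates are given as grams of active ingredient (100% active compound) per hectare. E^A is the summed effect of the individual applications and E^C the expected value by Colby, with ratings timed in days after application (DAT).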

Veronica hederifolia = test: Post-emergence herbicidal action against Veronica hederifolia
From the text: (§6) The following abbreviations are used in the description and the tables that follow: • g of a.i./ha=grams of active substance (active ingredient) (=100% active compound) per hectare; • The sum total of the effects of the individual applications is reported under E^A; • expected values according to Colby are each reported under E^C.
(§7) The rating period is reported in days after application (DAT).

[1] = test system: Lolium rigidum (resistant biotype); test: Post-emergence herbicidal action against Lolium rigidum (resistant biotype)
In short: as §5

Amaranthus palmeri = test: Post-emergence herbicidal action against Amaranthus palmeri; conditions: for Herbicidal action: 16 DAT; for pest or weed control at […] / pest or weed control at 5 g/ha / pest or weed control at 15 g/ha: Amaranthus palmeri, post-emergence, 504 h; for pest or weed control at […]: 1.7 g of a.i./ha; for pest or weed control at 5 g/ha: 5 g of a.i./ha; for pest or weed control at 15 g/ha: 15 g of a.i./ha
In short: as §1

Bromus sterilis = test: Post-emergence herbicidal action against Bromus sterilis
In short: as §5

Abutilon theophrasti = test: Post-emergence herbicidal action against Abutilon theophrasti
From the text: as §6, §7

Digitaria sanguinalis = test: Post-emergence herbicidal action against Digitaria sanguinalis
In short: as §1

Panicum maximum = test: Post-emergence herbicidal action against Panicum maximum
Description: as §2, §3, §4

Kochia scoparia = test: Post-emergence herbicidal action against Kochia scoparia; conditions: 1.7 g of a.i./ha
From the text: as §6, §7

[2] = block with (B1.14) Tembotrione, read-out: Herbicidal action 21 DAT [%] against Amaranthus palmeri
[3] = block with (B1.7) Mesotrione, read-out: Herbicidal action 21 DAT [%] against Amaranthus palmeri
[4] = read-out: Herbicidal action 21 DAT [%] against Amaranthus palmeri

C=C[C@]1(C(=O)N[C@H]2CO[C@@H](C(=O)OC)C2)CC(c2cc(F)cc(F)c2)=NO1 (relative stereo) [Compound A3, methyl rel-(2R,4R)-4-[[(5S)-3-(3,5-difluorophenyl)-5-vinyl-4H-isoxazole-5-carbonyl]amino]tetrahydrofuran-2-carboxylate]
Herbicidal action 14 DAT against Lamium purpureum L. (Lamium purpureum): 65%
Herbicidal action 21 DAT [%] against Sorghum halepense (Sorghum halepense): 40%
Herbicidal action 21 DAT against Sorghum halepense (Sorghum halepense): 40%
Herbicidal action 21 DAT [%] against Sorghum halepense (Sorghum halepense; post-emergence): 40%
Herbicidal action 21 DAT against Setaria viridis (Setaria viridis): 70%
Herbicidal action 21 DAT [%] against Setaria viridis (Setaria viridis; post-emergence): 70%
Herbicidal action 14 DAT against Alopecurus myosuroides (Alopecurus myosuroides; 1 g of a.i./ha): 15%
Herbicidal action 28 DAT against Alopecurus myosuroides (Alopecurus myosuroides; 1 g of a.i./ha): 15%
Herbicidal action 28 DAT against Alopecurus myosuroides (Alopecurus myosuroides; 4 g of a.i./ha): 50% and 60%
Herbicidal action in [%] 14 DAT against Alopecurus myosuroides (Alopecurus myosuroides; 1 g of a.i./ha): 30%
Herbicidal action in [%] 14 DAT against Alopecurus myosuroides (Alopecurus myosuroides; 4 g of a.i./ha): 75%
Herbicidal action in [%] 28 DAT against Alopecurus myosuroides (Alopecurus myosuroides; 1 g of a.i./ha): 10%
Herbicidal action in [%] 28 DAT against Alopecurus myosuroides (Alopecurus myosuroides; 4 g of a.i./ha): 60%
Herbicidal action in [%] 14 DAT against Veronica hederifolia (Veronica hederifolia; 1 g of a.i./ha): 10%
Herbicidal action in [%] 14 DAT against Veronica hederifolia (Veronica hederifolia; 4 g of a.i./ha): 30%
Herbicidal action 14 DAT against Veronica hederifolia (Veronica hederifolia; 16 g of a.i./ha): 40%
Herbicidal action 14 DAT against Veronica hederifolia (Veronica hederifolia; g of a.i./ha: 16, 270, 16 + 270): 40%
Herbicidal action 14 DAT against Lolium rigidum (resistant biotype) ([1]; 1 g of a.i./ha): 15% and 30%
Herbicidal action 28 DAT against Lolium rigidum (resistant biotype) ([1]; 1 g of a.i./ha): 0%
Herbicidal action 14 DAT against Lolium rigidum (resistant biotype) ([1]; 4 g of a.i./ha): 40% and 60%
Herbicidal action in [%] 14 DAT against Lolium rigidum (resistant biotype) ([1]; 1 g of a.i./ha): 30%
Herbicidal action in [%] 14 DAT against Lolium rigidum (resistant biotype) ([1]; 4 g of a.i./ha): 60%
Herbicidal action 28 DAT against Lolium rigidum (resistant biotype) ([1]; 16 g of a.i./ha): 80%
Herbicidal action in [%] 28 DAT against Lolium rigidum (resistant biotype) ([1]; 1 g of a.i./ha): 0%
Herbicidal action in [%] 28 DAT against Lolium rigidum (resistant biotype) ([1]; 4 g of a.i./ha): 40%
Herbicidal action in [%] 28 DAT against Lolium rigidum (resistant biotype) ([1]; 16 g of a.i./ha): 80%
Herbicidal action 28 DAT against Lolium rigidum (resistant biotype) ([1]; (Z61) post-emergence, g of a.i./ha: 4, 1, 270, 90, 4 + 270, 1 + 90, 1 g of a.i./ha): 0%
Herbicidal action 28 DAT against Lolium rigidum (resistant biotype) ([1]; (Z61) post-emergence, g of a.i./ha: 4, 1, 270, 90, 4 + 270, 1 + 90, 4 g of a.i./ha): 10%
Herbicidal action (Amaranthus palmeri; 50 g a.i./ha): 35%
Herbicidal action (Amaranthus palmeri; 100 g a.i./ha): 45%
pest or weed control at […] (Amaranthus palmeri; [2]): 0%
pest or weed control at […] (Amaranthus palmeri; [3]): 10%
pest or weed control at […] (Amaranthus palmeri; block with (B9.10) Saflufenacil, read-out: Herbicidal action 21 DAT [%] against Amaranthus palmeri): 0%
pest or weed control at 5 g/ha (Amaranthus palmeri; [2]): 10%
pest or weed control at 5 g/ha (Amaranthus palmeri; [3]): 15%
pest or weed control at 5 g/ha (Amaranthus palmeri; [4]): 15%
pest or weed control at 15 g/ha (Amaranthus palmeri; [2]): 30%
pest or weed control at 15 g/ha (Amaranthus palmeri; [4]): 30%
pest or weed control at 5 g/ha (Amaranthus palmeri; 21 DAT, read-out: Herbicidal action 21 DAT [%] against Amaranthus palmeri): 15%
pest or weed control at […] (Amaranthus palmeri; 21 DAT): 10%
Herbicidal action 14 DAT against Bromus sterilis (Bromus sterilis; 1 g of a.i./ha): 15%
Herbicidal action 28 DAT against Bromus sterilis (Bromus sterilis; 1 g of a.i./ha): 15%
Herbicidal action 14 DAT against Bromus sterilis (Bromus sterilis; 4 g of a.i./ha): 85%
Herbicidal action in [%] 14 DAT against Bromus sterilis (Bromus sterilis; 14 DAT, 1 g of a.i./ha): 30%
Herbicidal action in [%] 28 DAT against Bromus sterilis (Bromus sterilis; 1 g of a.i./ha): 30%
Herbicidal action in [%] 28 DAT against Bromus sterilis (Bromus sterilis; 4 g of a.i./ha): 90%
Herbicidal action 28 DAT against Bromus sterilis (Bromus sterilis; (Z61) post-emergence, g of a.i./ha: 1, 270, 90, 1 + 270, 1 + 90): 15%
Herbicidal action 21 DAT [%] against Abutilon theophrasti (Abutilon theophrasti; 1.7 g of a.i./ha): 10%
Herbicidal action 21 DAT against Abutilon theophrasti (Abutilon theophrasti; 1.7 g of a.i./ha): 0%
Herbicidal action 21 DAT against Abutilon theophrasti (Abutilon theophrasti; 5 g of a.i./ha): 30%
Herbicidal action 21 DAT [%] against Abutilon theophrasti (Abutilon theophrasti; 15 g of a.i./ha): 35%
Herbicidal action 21 DAT [%] against Digitaria sanguinalis (Digitaria sanguinalis; 1.7 g of a.i./ha): 20% and 10%
Herbicidal action 21 DAT against Digitaria sanguinalis (Digitaria sanguinalis; 1.7 g of a.i./ha): 10%
Herbicidal action 21 DAT [%] against Digitaria sanguinalis (Digitaria sanguinalis; 1.7 g of a.i./ha, post-emergence): 10%
Herbicidal action 21 DAT [%] against Digitaria sanguinalis (Digitaria sanguinalis; 5 g of a.i./ha): 80%
Herbicidal action 21 DAT against Digitaria sanguinalis (Digitaria sanguinalis; 5 g of a.i./ha): 80%
Herbicidal action (Digitaria sanguinalis; 21 DAT, 1.7 g a.i./ha): 10%
Herbicidal action 37 DAT against Digitaria sanguinalis (Digitaria sanguinalis; (Z61) post-emergence, g of a.i./ha: 180, 100, 100 + 180): 94%
Herbicidal action 28 DAT [%] against Panicum maximum (Panicum maximum; 100 g of a.i./ha): 82%
Herbicidal action 28 DAT against Panicum maximum (Panicum maximum; g of a.i./ha: 200, 100, 100 + 200): 82%
Herbicidal action 21 DAT against Kochia scoparia (Kochia scoparia): 30%

— patent publication US12171230B2, “Herbicidal compositions” (Bayer Aktiengesellschaft, priority 2018, dated 2024)
